Assay results published in US20230082130A1, “USE OF C[…] TO TREAT OR PREVENT FUNGAL GROWTH OF C. ALBICANS” (Demetrix, Inc., priority 2021, published 2023).
Values after ≈ are worked out from the molar mass of the structure shown. Read-outs that look alike come from different tables or passages of the source.

Tested on: C. albicans
Test: minimum inhibitory concentration (MIC) assay against C. albicans
Format: cell-based, Candida albicans
Conditions: growth inhibition of C. albicans, assay performed by Charles River Laboratories
Procedure: To determine the ability of the cannabinoid compounds described herein to reduce, inhibit, or eliminate, C. albicans a minimum inhibitory concentration (“MIC”) assay was performed. […] The assay was performed by Charles River Laboratories International (Wilmington, Mass.) in accordance with industry standards.

[1] = Candida albicans, read-out: MIC

| Molecule | MIC | MIC (Candida albicans) | MIC [1] |
| --- | --- | --- | --- |
| C=C(C)[C@@H]1CCC(C)=C[C@H]1c1c(O)cc(CCCCC)cc1O [CBD, cannabidol] | 200 µg/mL (≈ 636 µM) |  |  |
| CCCCCc1cc2c(c(O)c1C(=O)O)C1C3C(CCC3(C)O2)C1(C)C (centres unmarked) [CBLA, cannabicyclolic acid] | >200 µg/mL |  |  |
| C=C(C)[C@@H]1CCC(C)=C[C@H]1c1c(O)cc(CCC)c(C(=O)O)c1O [CBDVA, cannabidivarinic acid] | >200 µg/mL |  |  |
| CCCc1cc(O)c(C/C=C(\C)CCC=C(C)C)c(O)c1C(=O)O [CBGVA, cannabigerovarinic acid] | >200 µg/mL |  |  |
| CCCCc1cc(O)c(CC=C(C)CCC=C(C)C)c(O)c1 [CBG-C4, cannabigerol butyl] | 200 µg/mL (≈ 661 µM) |  |  |
| C=C(C)[C@@H]1CCC(C)=C[C@H]1c1c(O)cc(CCC)cc1O [CBDV, cannabidivarin] |  | < 25 µg/mL |  |
| CCCCCc1cc(O)c2c(c1)OC1(C)CCC3C1C2C3(C)C (centres unmarked) [CBL, cannabicyclol] | >200 µg/mL |  | > 200 µg/mL |
| CCCCc1cc(O)c(C/C=C(\C)CCC=C(C)C)c(O)c1C(=O)O [CBGA-C4, cannabigerolic acid butyl] | >200 µg/mL |  |  |
| CCCCCc1cc2c(c(O)c1C(=O)O)-c1cc(C)ccc1C(C)(C)O2 [CBNA, cannabinolic acid] | >200 µg/mL |  |  |
| CCCCCc1cc(O)c(C/C=C(\C)CCC=C(C)C)c(O)c1C(=O)O [CBGA, cannabigerolic acid] | >200 µg/mL |  | > 200 µg/mL |
| CCCCCc1cc(O)c2c(c1)OC(C)(CCC=C(C)C)C=C2 (centres unmarked) [CBC, cannabichromene] | >200 µg/mL |  | > 200 µg/mL |
| C=C(C)[C@@H]1CCC(C)=C[C@H]1c1c(O)cc(CCCCC)c(C(=O)O)c1O [CBDA, cannabidiolic acid] | >200 µg/mL |  | > 200 µg/mL |
| (+)-cannabidiol [(+)-CBD] | >200 µg/mL |  |  |
| CCCCCc1cc(O)c(C/C=C(\C)CCC=C(C)C)c(O)c1 [CBG, cannabigerol] | >200 µg/mL |  | > 200 µg/mL |
| CCCCCc1cc2c(c(O)c1C(=O)O)C=CC(C)(CCC=C(C)C)O2 (centres unmarked) [CBCA, cannabichromenic acid] | >200 µg/mL |  |  |
| CCCc1cc(O)c(C/C=C(\C)CCC=C(C)C)c(O)c1 [CBGV, cannabigerivarin] | 50 µg/mL (≈ 173 µM) |  |  |
| CCCCCc1cc(O)c2c(c1)OC(C)(C)c1ccc(C)cc1-2 [CBN, cannabinol] | >200 µg/mL |  | > 200 µg/mL |
